# Reference: patent US5552156A, “Liposomal and micellular stabilization of camptothecin drugs” (Ohio State University, priority 1995, dated 1996)
# Counter-ions that a name gives are not always drawn.
# Columns and labels:
# Format in all cases: physicochemical
# [1] = Fluorescence excitation and emission spectra of camptothecin drugs free in solution and bound to liposomes
# From the text: The camptothecin drugs are intrinsically intensely fluorescent. Fluorescence is associated with the extended conjugation of the quinoline ring system. The liposomes of Examples 1-7 were characterized for the presence of the camptothecin drugs, using excitation and emission spectrography, and fluorescence anisotropy.
# (§1) Steady-state fluorescence measurements were obtained on a SLM Model 4800C. spectrofluorometer with a thermostated cuvette compartment. This instrument was interfaced with an IBM PS/2 model 55 SX computer. Excitation and emission spectra were recorded with an excitation resolution of 8 nm and an emission resolution of 4 nm. In all cases spectra were corrected for background fluorescence and scatter from unlabeled lipids or from solvents by subtraction of the spectrum of a blank. Steady-state fluorescence intensity measurements were made in the absence of polarizer. Steady-state anisotropy (a) measurements were determined with the instrument in the "T-format" for simultaneous measurement of two polarized intensities. The alignment of polarizers were checked routinely using a dilute suspension of 0.25 μm polystyrene microspheres from Polysciences, Inc, Warrington, Pa., in water; anisotropy values of >0.99 were obtained. The anisotropy was calculated from a=(Ivv -GlVH)/(Ivv +GIVH), where G-IVH /IHH and the subscripts refer to vertical and horizontal orientations of the excitation and emission polarizers, respectively.
# (§2) Anisotropy measurements for camptothecin, camptothecin carboxylate sodium salt, and 10,11-methylenedioxycamptothecin were conducted using exciting light of 370 nm and 420 nm long wave pass filters on each emission channel in order to isolate the fluorescence signal from background scatter and signal. For topotecan a 400 nm excitation wavelength and a 500 nm emission filter were used and for 9-aminocamptothecin a 375 nm excitation and a wavelength 420 nm emission filter were used. For AMC and CMC, a 370 nm excitation wavelength and a 400 nm emission filter were used. For 10-hydroxycamptothecin 375 nm excitation wavelength 500 nm emission filter was used. Emission filters were obtained from Oriel Corp. Stamford, Conn. The combination of exciting light and emission filters allows one to adequately separate the fluorescence from the background signal. The contribution of background fluorescence, together with scattered light, was typically less than 1% of the total intensity. Since the lactone ring of the camptothecin drug undergoes hydrolysis in aqueous medium, all measurements were completed within the shortest possible time, less than 1 minute after mixing the drug stock solution with PBS or the liposomes. In each case, analysis was initiated immediately after mixing the drug stock solution with PBS or with the liposomes. All measurements were performed at 37° C. unless otherwise noted.
# The relative fluorescence intensity of 1×10^-6 M of camptothecin free in PBS buffer at 37° C. is shown. The emission spectra of the camptothecin was recorded using exciting light of 370 nm.
# An exciting light of 390 nm was used to record the emission spectra of topotecan. A decrease in the emission intensity is observed for topotecan associated with the DMPG liposome.
# All spectra were recorded using camptothecin drug concentrations of 2
# μM. The DMPC and DMPG concentrations were 0.29 M. Experiments were
# conducted in PBS buffer at 37° C.
# Also found in Table II is a relative index of the emission intensity levels from these camptothecin drugs in PBS at their respective excitation and emission λMAX.
# [2] = Steady-state fluorescence anisotropy in solvents and liposomes; conditions: for steady-state anisotropy (a), DMPC: DMPC liposomes
# Protocol: as §1, §2
# (§3) While the spectral changes provide qualitative evidence that the camptothecin drugs bind the liposome membranes, fluorescence anisotropy titration, offers the most sensitive means for quantitatively assessing the extent of the binding. The fluorescence anisotropy titration was performed according to the method of Burke and Tritton, Biochemistry 24: 1768-1776 (1985).
# A steady-state fluorescence anisotropy (a) measurement is related to the rotational rate of the fluorescent molecule through the Perrin Equation: […]
# where a0 is the limiting fluorescence anisotropy value, that is, the anisotropy value in the absence of depolarizing rotations, T is the excited-state lifetime, and .phi. is the rotational correlative time of the fluorophore. According to Equation 1, changes in either the T or .phi. values of a fluorescent compound can modulate its steady-state anisotropy.
# The limiting fluorescence anisotropy (a0) values were also measured. The maximum values of (a) were obtained by dissolving the camptothecin drugs in the viscous solvent glycerol and cooling the samples to low temperatures. Steady-stated anisotropy (a) values were determined for samples containing 1 μM drug at 37° C.
# Where the solvent viscosity is high and temperature is low, depolarizing rotations are at a minimum. By extrapolating these (a) values to -25° C., the limiting anisotropy values (a0) for the camptothecin drugs, were determined. […]
# [3] = Overall association constant by fluorescence anisotropy titration, DMPC liposomes
# Protocol: as §3
# The concentrations of free camptothecin drugs and camptothecin drugs associated with liposomes were determined at various lipid concentrations. All experiments were conducted in glass tubes pretreated with a silating agent, Surfacil, from Pearce Chemical, Rockford, Ill. The titration was conducted at camptothecin drug concentration of 1×10^-6 M in PBS at 37° C. Anisotropy values at each lipid concentration were determined within less than 30 seconds following the addition of the camptothecin drugs to the liposome suspension. The (a) values were determined for fixed drug concentration, typically 2 μM, while the lipid concentration was varied from 0 to 0.29M. By varying the lipid concentration rather than varying the drug concentration, the problem of self-association phenomenon which occurs for camptothecin drugs concentrations in excess of 10 μM is avoided. Also, the well-known phenomenon known as inner filter effect which occurs using fluorescent material at high optical densities is a is avoided.
# Adsorption isotherms like those shown in FIGS. 4A and 4B were used to determine overall association constants for the camptothecin drugs. Overall association constants are defined as: […]
# where [AB ] represents the concentration of the camptothecin drug bound to the vesicle membrane, [AF ] represents the concentration of free drug, and [L] represents the total lipid concentration in the liposome suspension. This equation is valid when the concentration of free lipid is approximately equal to the concentration of total lipid, that is, the concentration of free lipid is in great excess over the concentration of bound drug. Provided this concentration is satisfied, K may be determined from the inverse of the slope of a double reciprocal plot according to (Burke and Tritton, Biochemistry 24:1776, 1985). In such a plot, 1/bound fraction of the total camptothecin drug is plotted vs. 1/[lipid], with a y-intercept value of 1.
# FIG. 6A is the double-reciprocal plot for the associations of CMC, camptothecin, camptothecin carboylate sodium salt and topotecan with DMPC at 37° C.
# The stabilization of camptothecin drugs was determined using different lipids. Three types of lipids (and thus 3 types of membranes) were examined: fluid-phase and electroneutral L-α-dimyristoylphosphatidylcholine (DMPC); fluid-phase and negatively-charged L-α-dimyristoylphosphatidylglycerol (DMPG), and solid-phase and electroneutral L-α-distearoylphosphatidylcholine (DSPC). While DMPC and DMPG have identical chain length, the charge on their head groups differ. DMPC and DSPC have identical head groups, but DMPC has acyl chains having 14 carbons per chain, which are four carbons shorter than the DSPC, which has 18 carbons per chain. This difference of 4-carbon chain length results in DMPC being fluid-phase at 37° C. while DSPC is solid-phase. The 7 camptothecin drugs listed in Table III were combined with liposomes containing the above lipids.
# FIGS. 4A and 4B show the extent of camptothecin drug binding to liposomes as a function of lipid concentration for DMPC and DMPG liposomes. DMPC liposomes were made as in Example 1, at lipid concentrations from 0 to 0.29M, using CMC, 10-hydroxycamptothecin, 10,11-methylenedioxy-camptothecin, topotecan, camptothecin, and camptothecin carboxylate sodium salt, as shown in FIG. 4B. DMPG liposomes were made as in Example 2, at lipid concentrations from 0 to 0.29M, using 9-chloro-10,11-methylenedioxycamptothecin CMC, 10,11-methylenedioxycamptothecin, camptothecin, and topotecan, 9-aminocamptothecin, as shown in FIG. 4A. […]
# [4] = HPLC assay of lactone ring hydrolysis, free in PBS or associated with liposomes or micelles; conditions: for carboxylate/lactone ratio (C/L) free drug: final equilibrium; for carboxylate/lactone ratio (C/L) free drug / t1/2 free drug: free in PBS, pH 7.4, 37° C.; for t1/2 free drug: lactone hydrolysis
# Protocol: A high performance liquid chromatography assay was used to determine the rate of hydrolysis of camptothecin and topotecan free in aqueous solution and to compare such rates with the rate of hydrolysis for the same drugs when bound to the DMPG and DMPC liposome membranes. The assay was conducted under near physiological conditions; the pH was 7.4, the temperature was 37° C. and the ionic strength was physiological. A Spectroflow model 980 fluorescence detector coupled to an HP 3392A integrator which acquired and processed the chromatograms, was used. For camptothecin, an Ultrasphere ODS C-18 250 mm long column was used. The mobile phase consisted of 32% acetonitrile, 67% 0.1M acetate buffer, pH 5.5, and 1% 01.M sodium dodecylsulfate at a flow rate of 1 mL/min. The detector was set to 370 nm excitation wavelength and a 418 nm long pass emission filter. A 1 μM solution of camptothecin in PBS was prepared and incubated at 37° C. Immediately after mixing the drug stock solution with PBS and at intervals of 5 min thereafter, 50 μL aliquots were taken out and mixed with 150 μL methanolic internal standard, 9-toluoylamidocamptothecin and either analyzed immediately or kept cold under dry ice. 150 μL of this mixture was diluted with 125 μL water and 200 μL was injected. The ratio of the peak areas corresponding to the intact lactone form of the camptothecin drug and the internal standard at a particular time was normalized to that at the time of mixing and was considered as the concentration of the intact lactone form.
# For topotecan the excitation wavelength was 362 nm and the emission was observed through a 470 long wave pass filter. The stationary phase was Waters Nova-Pak C-18 150mm long column. The mobile phase consisted of 500 mL 0.1M KH2 PO4, 550 mL acetonitrile, 4.2 mL triethylamine (distilled over molecular sieves), 4.44 g sodium dioctylsulfosuccinate (DOSS), and 970 ml water. The pH was adjusted to 6.0 with H3 PO4. Internal standard solution contained 50×10^-9 g acridine from Eastman and 20×10^-3 M DOSS in methanol and was always kept cold at ≤-20° C. Next 150 μL or cold internal standard solution was mixed with 50 μL aliquot containing topotecan, centrifuged for 1 minute and the supernatant was either analyzed immediately or stored at -20° C. for analysis at a later time, within 2 hours. Samples were monitored at time points from 0 minutes, that is, immediately following dissolution, up to 72 hours.
# The kinetics of lactone ring hydrolysis for free camptothecin, CMC and topotecan are shown in of FIGS. 7a, 7b and 7c. Analysis of the decay profile for camptothecin, CMC and topotecan free in PBS was accomplished using a nonlinear least squares program.
# [5] = in PBS, pH 7.4, at excitation and emission λMAX
compound,measurement,setting,value
"CCC(O)(C(=O)O)c1cc2n(c(=O)c1CO)Cc1cc3ccccc3nc1-2 (centres unmarked) [camptothecin carboxylate, camptothecin carboxylate sodium salt]","λMAX emission, DMPC","[1]; DMPC liposomes 0.29 M, pH 7.4, 37° C.",437 nm
same,"λMAX emission, DMPG","[1]; DMPG liposomes 0.29 M, pH 7.4, 37° C.",435 nm
same,"λMAX emission, PBS","[1]; free in PBS, pH 7.4, 37° C.",443 nm
same,Relative Fluorescence,[1]; [5],1
same,λMAX excitation,"[1]; pH 7.4, 2 μM drug, PBS, 37° C.",377 nm
same,"steady-state anisotropy (a), DMPC","[2]; 37° C., 1/a vs. 1/[lipid] plot",0.102
same,"steady-state anisotropy (a), PBS","[2]; 1 μM drug, 37° C.",0.008
same,limiting fluorescence anisotropy a0,"[2]; extrapolated to -25° C., glycerol",0.377
same,"steady-state anisotropy (a), glycerol","[2]; glycerol, 1 μM drug, 37° C.",0.327
same,"steady-state anisotropy (a), octanol","[2]; octanol, 1 μM drug, 37° C.",0.073
same,"overall association constant K, DMPC","[3]; DMPC (electroneutral, fluid phase), PBS, 37° C.",40 M⁻¹
same,reduction in binding to DMPC liposomes upon hydrolysis to carboxylate,[3]; relative to camptothecin,three-fold reduction
"CCC1(O)C(=O)OCc2c1cc1n(c2=O)Cc2cc3c(N)c4c(cc3nc2-1)OCO4 (centres unmarked) [9-amino-10,11-methylenedioxycamptothecin]",emission maxima as the pH is decreased,"[1]; 2 μM, excitation 370 nm, decreased pH",430 nm
same,shift of emission maxima upon decrease of pH / protonation,[1]; free in PBS,about 120 nm
same,"λMAX emission, PBS","[1]; free in PBS, pH 7.4, 37° C.",550 nm
same,Relative Fluorescence,[1]; [5],0.001
same,λMAX excitation,[1]; pH 1.5,373 nm
same,Relative Fluorescence,"[1]; pH 1.5, PBS",0.06
same,"λMAX emission, PBS","[1]; pH 1.5, free in PBS",430 nm
same,λMAX excitation,"[1]; pH 7.4, 2 μM drug, PBS, 37° C.",404 nm
same,"steady-state anisotropy (a), DMPC","[2]; pH 2, 37° C.",0.160
same,"steady-state anisotropy (a), PBS","[2]; pH 3, 37° C.",0.049
same,lactone hydrolysis when associated with liposomes,[4]; DMPC and DMPG liposomes,some hydrolysis occurred at 1 hour
same,lactone ring hydrolysis at 5 hours,"[4]; DMPG or DMPC liposomes, 5 hours",≤ 40%
same,carboxylate/lactone ratio (C/L) free drug,[4],5.1
same,t1/2 free drug,[4],26.9 min
CCC1(O)C(=O)OCc2c1cc1n(c2=O)Cc2cc3c([N+](=O)[O-])cccc3nc2-1 (centres unmarked) [9-nitrocamptothecin],reduction in emission intensity levels relative to camptothecin,"[1]; free in PBS, pH 7.4",1000 -fold
same,"λMAX emission, PBS","[1]; free in PBS, pH 7.4, 37° C.",456 nm
same,Relative Fluorescence,[1]; [5],0.001
same,λMAX excitation,"[1]; pH 7.4, 2 μM drug, PBS, 37° C.",378 nm
same,carboxylate/lactone ratio (C/L) free drug,[4],7.5
same,t1/2 free drug,[4],23.8 min
